This is an account of results in US9586896B2, “Nitroxyl donors with improved therapeutic index” (Cardioxyl Pharmaceuticals, Inc., priority 2013, dated 2017).

Where two headings read alike, the source gives them in different places.

The subject of one series is normal canines. As to the kind of experiment: Hemodynamic efficacy (PV loop analysis) in normal canines. The class given is in vivo, beagle dogs. The following applies: i.v. infusion. The method, then: The cardiovascular effects of nitroxyl donors were examined by means of pressure-volume (PV) curve (loops) analysis in conscious, sling-restrained beagle dogs. Animals were allowed free access to drinking water and a commercial canine diet under standard laboratory conditions. Fluorescent lighting was provided via an automatic timer for approximately 12 hours per day. On occasion, the dark cycle was interrupted intermittently due to study-related activities. Temperature and humidity were monitored and recorded daily and maintained to the maximum extent possible between 64° F. and 84° F. and 30% to 70%, respectively. The dogs were acclimated for a period of at least 1 week prior to surgery. Following surgery and recovery the animals were acclimated to sling restraint for a period up to 4.5 hours. Animals were fasted overnight prior to surgery.
Once a stable (surgical) plane of anesthesia had been established, a left-thoracotomy was performed (under strict aseptic conditions) and each animal was chronically instrumented with sono-micrometry crystals providing left-ventricular (LV) dimensions/volume. Additionally, a fluid-filled catheter and a solid-state monometer were placed in the left ventricle for pressure monitoring. A fluid-filled catheter was placed in the right ventricle (RV) and the aorta (Ao) for pressure monitoring/test article administration. […] The catheters/wires were aseptically tunneled and externalized between the scapulae. Over the course of the study, fluid-filled catheters were regularly (at least once weekly) flushed with a locking-solution in order to prevent both clotting and bacterial growth (2-3 mL of Taurolidine-Citrate solution, TCS-04; Access Technologies).
The animals (normal or heart failure) were studied during treatment with both vehicle (control) and a nitroxyl donor (either CXL-1020, a compound of formula (1) or a compound of formula (2)). At each dosing period, conscious sling-restrained animals were continuously monitored for up to two to three hours. Following hemodynamic stabilization, infusion of the vehicle was started. […] Infusion of the vehicle was continued and after 30 min another (baseline) set of hemodynamic data was collected. Following collection of baseline hemodynamic data, infusion of the nitroxyl donor compound being tested was initiated and derived hemodynamic/functional parameters were obtained/performed at up to four (4) time points selected from the following: at 30, 60, 90, 120, and 180 minutes after the onset of vehicle/test compound infusion. For the placebo or time-control treatment group, each animal was administered an infusion of an appropriate placebo for up to 180 minutes. In all cases, the test compound was delivered at a constant intravenous infusion rate of 1 mL/kg/hr and was compared at a molar equivalent dose rate.
The resulting left-ventricular pressure and volume data were analyzed in order to generate relationships representing the contractile and energetic state of the myocardium. Systolic arterial pressure (SAP), diastolic arterial pressure (DAP), and mean arterial pressure (MAP) were collected. Left-ventricular mechanical and/or geometrical indices were obtained from the pressure (ESP, EDP, dP/dt max/min, time-constant of relaxation-tau [based on mono-exponential decay with non-zero asymptote]) and volume (end-systolic volume (ESV), end diastolic volume (EDV), stroke volume (SV)) signal. In addition, the following measurements were derived from left-ventricular pressure-volume data (PV loops) generated during brief periods of preload reduction: pressure volume area (PVA) and stroke work (SW), end-systolic (ESPVR) and end-diastolic (EDPVR) pressure volume relationships, and end systolic pressure and stroke volume relationship (arterial elastance (Ea)). Representative data obtained from studies in normal dogs and heart failure dogs is shown in Table 5 and Table 6, respectively. A SVR (systemic vascular resistance) decrease correlates with vasodilation.

The nature of series [1]: In vitro stability (half-life) in rat plasma. The class given is in vitro ADME. To be noted: male, rat plasma pH 7.4, anticoagulant, 37° C., read-out: T1/2 (minutes) Rat. The method, then: Compound (1), compound (2), and CXL-1020 were tested for their stability in plasma. The assay system comprised (i) PBS, or plasma from rat, dog or human (at least 3 donors, male, pooled) at pH 7.4, and (ii) for tests conducted in plasma, an anticoagulant (sodium heparin or sodium citrate). Each test compound (5 μM) was incubated in PBS or plasma at 37° C. on a THERMOMIXER® with shaking Three samples (n=3) were taken at each of seven sampling time points: 0, 10, 30, 60, 90, 180 and 360 minutes. The samples were immediately combined with 3 volumes (i.e., 3 times the volume of PBS or plasma) of acetonitrile containing 1% formic acid and an internal standard to terminate the reaction. AB SCIEX API 3000 LC-MS/MS analysis of the test compounds was performed without a standard curve. Half-lives (T1/2) of the test compounds were determined from graphs of the percent remaining values using the peak area response ratio.

A short description of series [2]: Solubility by visual assessment in pH 4 buffer. The class given is physicochemical. To be noted: pH 4 citrate buffer, pH 4, aqueous buffer, thermodynamic from solid, shaken 5 minutes. The protocol: Initially, the solubilities of the compounds of formula (1) and formula (2) were measured by visual assessment at 100 μg/mL and 1000 μg/mL in a pH 4 buffer. The buffer was prepared by mixing 660 mL of Solution A (10.5023 g of citric acid dissolved in 1 L of water) and […] of Solution B (14.7010 g of sodium citrate tribasic dihydrate dissolved in 1 L of water). The pH of the buffer was 3.98 as measured by pH meter. Each compound was shaken for about 5 minutes in the pH 4 buffer solution prepared above at two concentration points (100 μg/mL and 1000 μg/mL) and the solubility was observed visually.

Another series deals with dogs. Nature of the series: 72-hour continuous infusion investigative studies of CXL-1020 in dogs (implanted catheter). The class given is in vivo. To be noted: 72-hour infusion. The method, then:
To determine the cause of the inflammation and hind limb swelling, a series of 72-hour continuous infusion investigative studies were conducted over the following 6 months. […] The first site of inflammation, the catheter insertion site, caused the dog hind limb swelling and inflammation observed in the early-terminated follow-up study. Increasing infusate pH from 4 to 6 decreased inflammation, improving the inflammatory profile by approximately 3-fold.

Setting [3] is: 100 μg/mL, read-out: Solubility (100 μg/mL).
Setting [4] is: 1000 μg/mL, read-out: Solubility (1000 μg/mL).
Setting [5] is: dose rate 50 (μmol/kg/min [sic]).

Turning to `CS(=O)(=O)c1cccc(S(=O)(=O)NO)c1` [(2), N-Hydroxy-3-methanesulfonylbenzene-1-sulfonamide], in the series with normal canines (dose rate 100 (μmol/kg/min [sic])), the “Tau (% Change from Baseline)” value is listed as −6.40 ± 7.11%. For the same compound, in series [1], the half-life at 5 μM was found to be 20 min. Also, the solubility at 5 min in series [2] (setting [3]) is over 100 µg/mL; in series [2] (setting [4]), over 1000 µg/mL.
For `CS(=O)(=O)c1ccccc1S(=O)(=O)NO` [CXL-1020, N-hydroxy-2-methanesulfonylbenzene-1-sulfonamide], the “improvement of the inflammatory profile on increasing infusate pH from 4 to 6” value in the series on dogs is listed as “approximately 3 fold”. Also, in the series on dogs (infusate pH 6), the “dose rates at which significant undesirable side effects were still demonstrated” value was “greater than or equal to 3 μg/kg/min”. For the same compound, the “dose rates causing clinical pathology changes consistent with an inflammatory process” value with dogs (pH 4 formulation, 1:1 molar CXL-1020:CAPTISOL in 5% dextrose) is given as “greater than or equal to 0.03 μg/kg/min”.
Take `Cc1ccc(S(=O)(=O)NO)o1` [Compound (1), N-Hydroxy-5-methylfuran-2-sulfonamide]: in the series with normal canines (setting [5]), the “EDV (% Change from Baseline)” value is reported as −6 ± 2%, the “ESP (% Change from Baseline)” value is given as −18 ± 2%, the “ESPVR (% Change from Baseline)” value was found to be 19 ± 1% and the “HR (% Change from Baseline)” value is −4 ± 2%. Moreover, in the series on normal canines (setting [5]), the “PRSW (% Change from Baseline)” value was determined as 12 ± 1%, the “SW (% Change from Baseline)” value is listed as −11 ± 4% and the “Tau (% Change from Baseline)” value was −6 ± 1%. In series [1], the half-life at 5 μM was 40 min. Moreover, the solubility at 5 min in series [2] (setting [3]) is over 100 µg/mL. Besides, the solubility at 5 min in series [2] (setting [4]) is over 1000 µg/mL.
